The numbers were not newly measured in patent publication US20080057002A1, “Non-aqueous compositions containing urea and allantoin and methods for preparing same” (priority 2006, published 2008), which cites them from elsewhere.

Bounds are passed on as bounds.

For this data set the following is noted: expressed in g/100 g solvent @25 degree. C.

Regarding `NC(=O)NC1NC(=O)NC1=O` (stereo not drawn) [allantoin, (2,5-dioxo-4-imidazolidinyl) urea], the “solubility of allantoin in ethanol” value (ethanol) is reported as under 0.1%. The “solubility of allantoin in propylene glycol” value (propylene glycol) is listed as under 0.1%. The “solubility of allantoin in water” value (water) is 0.45%.
